Values quoted from earlier work as cited in patent publication US20130204238A1, “COMBINATION THERAPY” (FOLLICA, INC, priority 2010, published 2013).

Molecular target: GSK3β (Homo sapiens, UniProt P49841)
Conditions: compared with other indirubin derivatives

GSK3β, sequence (P49841 whole entry, species assumed): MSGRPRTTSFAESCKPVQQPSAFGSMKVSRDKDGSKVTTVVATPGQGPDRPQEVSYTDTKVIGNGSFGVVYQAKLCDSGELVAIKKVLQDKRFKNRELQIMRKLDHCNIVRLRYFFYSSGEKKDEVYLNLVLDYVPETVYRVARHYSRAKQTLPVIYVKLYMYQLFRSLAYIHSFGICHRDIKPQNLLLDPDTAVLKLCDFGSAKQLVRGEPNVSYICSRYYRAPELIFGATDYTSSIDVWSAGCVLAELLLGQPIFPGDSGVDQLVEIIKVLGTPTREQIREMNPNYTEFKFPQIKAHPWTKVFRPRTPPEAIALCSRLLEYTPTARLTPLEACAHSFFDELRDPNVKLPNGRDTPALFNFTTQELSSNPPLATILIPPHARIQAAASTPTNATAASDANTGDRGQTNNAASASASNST

Row | Compound | pharmacological properties | toxicity
1 | O=C1Nc2ccc(Cl)cc2/C1=C1/Nc2ccccc2C1=O [5-chloroindirubin] | better pharmacological properties | reduced toxicity
2 | indirubin 3′-monoxime | better pharmacological properties | –
